Like-named read-outs stand apart in the source and are kept apart here.
Columns and labels:
healthy subject = assay: General arterial pressure at doses that improve field of vision; type: in vivo, human; settings: in vivo
Excerpt: Effective doses for producing effects in the ophtalmologic field are desirably lower than doses that would induce general arterial hypotension in a subject with normal pressure. Clearly, the doses that can be used can be higher in subjects with hypertension, although this is not necessary, since the desired effect is that obtained in the ophtalmologic field.

rabbit converting enzyme [1] = target: T1, rabbit converting enzyme (Oryctolagus cuniculus, UniProt P12822); assay: In vitro inhibition of rabbit converting enzyme (Bünning and Shapiro methods); type: biochemical
T1 construct: host or cells: rabbit lung (only from the title of the cited Shapiro thesis)
T1 sequence (P12822 34-1310): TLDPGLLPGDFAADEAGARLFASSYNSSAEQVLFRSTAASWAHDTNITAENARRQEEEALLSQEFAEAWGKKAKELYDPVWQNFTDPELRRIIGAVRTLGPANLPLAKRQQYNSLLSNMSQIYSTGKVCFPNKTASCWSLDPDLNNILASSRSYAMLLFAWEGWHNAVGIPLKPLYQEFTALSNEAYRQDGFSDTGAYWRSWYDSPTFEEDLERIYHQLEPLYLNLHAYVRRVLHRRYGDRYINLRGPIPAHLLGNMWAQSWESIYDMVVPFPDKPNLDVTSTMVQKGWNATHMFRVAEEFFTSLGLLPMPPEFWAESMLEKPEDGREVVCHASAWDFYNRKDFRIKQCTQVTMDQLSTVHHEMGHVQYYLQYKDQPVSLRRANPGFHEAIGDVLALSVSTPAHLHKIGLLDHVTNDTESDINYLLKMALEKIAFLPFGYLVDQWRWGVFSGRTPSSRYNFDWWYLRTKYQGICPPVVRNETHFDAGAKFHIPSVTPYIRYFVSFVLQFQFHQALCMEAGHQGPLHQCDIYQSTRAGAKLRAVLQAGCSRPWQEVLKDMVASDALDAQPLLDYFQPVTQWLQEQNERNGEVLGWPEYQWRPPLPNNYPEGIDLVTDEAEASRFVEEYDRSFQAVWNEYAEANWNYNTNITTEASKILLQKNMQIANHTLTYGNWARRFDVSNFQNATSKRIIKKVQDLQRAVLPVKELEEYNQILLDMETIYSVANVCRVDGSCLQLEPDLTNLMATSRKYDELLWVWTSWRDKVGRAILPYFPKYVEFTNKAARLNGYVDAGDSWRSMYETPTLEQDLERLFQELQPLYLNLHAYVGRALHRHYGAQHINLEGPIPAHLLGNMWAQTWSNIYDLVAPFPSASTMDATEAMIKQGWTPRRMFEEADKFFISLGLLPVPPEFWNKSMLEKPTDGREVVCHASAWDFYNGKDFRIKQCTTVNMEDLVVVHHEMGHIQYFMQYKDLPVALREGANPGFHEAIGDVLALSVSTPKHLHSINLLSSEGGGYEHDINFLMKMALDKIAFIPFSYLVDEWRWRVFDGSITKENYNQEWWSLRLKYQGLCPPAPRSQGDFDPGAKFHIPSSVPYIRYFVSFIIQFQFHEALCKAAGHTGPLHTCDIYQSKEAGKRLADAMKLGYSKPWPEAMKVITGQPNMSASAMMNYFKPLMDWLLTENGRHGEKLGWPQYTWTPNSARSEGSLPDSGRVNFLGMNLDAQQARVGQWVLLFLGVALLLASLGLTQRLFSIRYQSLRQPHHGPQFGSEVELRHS
Excerpt: Doubtless, such drugs intervene in the CEI action mechanism, in that they act by preventing the transformation of angiotensin I to angiotensin II (vasoconstrictor) and the degradation of bradykinins (vasodilators). These CEIs thus cause vasodilation, which is exerted on arteries and on veins. Thus, they are mixed vasodilators. It should be remembered that the mechanism for the formation of the bond that can be formed between the inhibitor and the enzyme normally occurs in two phases, the first consisting of the formation of an inhibitor-enzyme complex by a competitive bond, which involves a reaction governed by a constant K1, and the second, consisting of a slow isomerisation of the inhibitor-enzyme complex, itself also governed by a reversible rate constant for this reaction, k4.
Comparison with captopril and enalaprilat” in Drug Research 1984; 34:1406–1410, and the doctoral thesis by Shapiro R. (Ph.D. Thesis, Harvard University Cambridge, Mass., 1983 “Activation and inactivation of rabbit pulmonary angiotensin converting enzyme”.

treated patients = assay: Visual function in treated patients, enalaprilat used instead of ramipril; type: in vivo, human; settings: comparison enalaprilat vs ramiprilat
Excerpt: It should be remembered that the physico-chemical indications described above originate from the article by Vasmant et al., loc. cit.

rabbit converting enzyme [2] = target: T1, rabbit converting enzyme; settings: cited from earlier work

Row | Structure (SMILES) | effect on arterial pressure of doses that improve field of vision (healthy subject) | stability of enzyme complex relative to enalaprilat (rabbit converting enzyme [1]; from k4) | Ki relative to enalaprilat (rabbit converting enzyme [1]; printed as 'higher than with enalaprilat') [times] | improvement in visual function in treated patients (treated patients) | Ki (rabbit converting enzyme [2]; unit inferred, read-out: constant Ki) [nM] | constant k4 (rabbit converting enzyme [2]; unit not given) | constant k4 for the reversible isomerisation of the enzyme-inhibitor complex (rabbit converting enzyme [2]; 50 mM/l Hepes, 300 mmol/l NaCl, 1 micromol/l ZnCl2, pH 7.5) | Ki (rabbit converting enzyme [2]; in vitro, 50 mM/l Hepes, 300 mmol/l NaCl, 1 micromol/l ZnCl2, pH 7.5, read-out: equilibrium inhibition constant K) [nM]
1 | C[C@H](N[C@@H](CCc1ccccc1)C(=O)O)C(=O)N1[C@H](C(=O)O)C[C@@H]2CCC[C@@H]21 [ramiprilat] | do not cause arterial hypertension | six times more stable | 7 | incomparably better | 0.007 | 1.8×10^−5 |  | 
2 | C[C@H](N[C@@H](CCc1ccccc1)C(=O)O)C(=O)N1CCC[C@H]1C(=O)O [enalaprilat] |  |  |  | moderate improvement |  |  | 1.1×10^−4 S1 | 0.05

Reference: US7049340B1, “Neuroprotective and retinoprotective ophthalmologic drugs” (priority 1999, dated 2006)
